Laboratory results reported in ChEMBL document CHEMBL1201862, “PubChem BioAssay data set” (2004).
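Tested at 5 concentrations; 48 h exposure; 96-well plates; endpoints linearly interpolated, else capped at highest concentration. At the GI50, growth is halved.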 Active and inactive are the calls of the source. Rule as the data show it: active = GI50 up to about 1.1 µM and inactive = higher.

Key:
Assay in all cases: inhibition of tumour cell growth, NCI panel, 48 h
MDA-N = system: MDA-N
Hs-578T = system: Hs-578T
NCI-H23 = system: NCI-H23
OVCAR-5 = system: OVCAR-5
CAKI-1 = system: CAKI-1
M14 = system: M14
ACHN = system: ACHN
SK-MEL-2 = system: SK-MEL-2
SW-620 = system: SW-620
OVCAR-3 = system: OVCAR-3
A498 = system: A498
HT-29 = system: HT-29
MDA-MB-231 = system: MDA-MB-231
SN12C = system: SN12C
NCI-H460 = system: NCI-H460
U-251 = system: U-251
SNB-75 = system: SNB-75
A549 = system: A549
NCI/ADR-RES = system: NCI/ADR-RES

Structure (SMILES) | GI50 (MDA-N) | GI50 (Hs-578T) | GI50 (NCI-H23) | GI50 (OVCAR-5) | GI50 (CAKI-1) | GI50 (M14) | GI50 (ACHN) | GI50 (SK-MEL-2) | GI50 (SW-620) | GI50 (OVCAR-3) | GI50 (A498) | GI50 (HT-29) | GI50 (MDA-MB-231) | GI50 (SN12C) | GI50 (NCI-H460) | GI50 (U-251) | GI50 (SNB-75) | GI50 (A549) | GI50 (NCI/ADR-RES)
Cc1ccccc1NC(=N)Nc1ccccc1C | > 100 µM (inactive) | > 100 µM (inactive) | > 100 µM (inactive) | > 100 µM (inactive) | > 100 µM (inactive) | 66.8 µM (inactive) | > 100 µM (inactive) | > 100 µM (inactive) | > 100 µM (inactive) | > 100 µM (inactive) | > 100 µM (inactive) | > 100 µM (inactive) | > 100 µM (inactive) | > 100 µM (inactive) | > 100 µM (inactive) | > 100 µM (inactive) | 54.6 µM (inactive) | > 100 µM (inactive) | > 100 µM (inactive)
Nc1nc(SCc2ccccc2Cl)cc(C(=O)O)n1 | 96.4 µM (inactive) | 49.1 µM (inactive) | 57.4 µM (inactive) | 78 µM (inactive) | > 100 µM (inactive) | > 100 µM (inactive) | 91.4 µM (inactive) | 58.9 µM (inactive) | 70.6 µM (inactive) | 28.6 µM (inactive) | > 100 µM (inactive) | > 100 µM (inactive) | > 100 µM (inactive) | 97.1 µM (inactive) | 41.5 µM (inactive) | 54.8 µM (inactive) | > 100 µM (inactive) | > 100 µM (inactive) | 33.4 µM (inactive)
O=C(CC(Cc1ccccc1)c1ccc(Oc2ccccc2)cc1)Nc1cccc(Cl)c1 (stereo not given) | 4.47 µM (inactive) | 7.85 µM (inactive) | 3.35 µM (inactive) | 28.6 µM (inactive) | 3.66 µM (inactive) | 4.88 µM (inactive) | 3.65 µM (inactive) | 3.56 µM (inactive) | 4.42 µM (inactive) | 3.86 µM (inactive) | 4.47 µM (inactive) | 5.79 µM (inactive) | 10.8 µM (inactive) | 4.22 µM (inactive) | 3.83 µM (inactive) | 3.95 µM (inactive) | 6.73 µM (inactive) | 3.9 µM (inactive) | 3.62 µM (inactive)
COc1ccc(Oc2nc3cc(C(F)(F)F)ccc3nc2C(C)C)cc1 | 35.4 µM (inactive) | 31.6 µM (inactive) | 21 µM (inactive) | 24.9 µM (inactive) | 35.2 µM (inactive) | 31.6 µM (inactive) | 26.2 µM (inactive) | 18.5 µM (inactive) | 30.8 µM (inactive) | 29.6 µM (inactive) | 20 µM (inactive) | 19 µM (inactive) | 24.7 µM (inactive) | 24.5 µM (inactive) | 23.2 µM (inactive) | 23.1 µM (inactive) | 25.4 µM (inactive) | 31.1 µM (inactive) | 19.4 µM (inactive)
Nc1c(C(=O)O)c2ccc([N+](=O)[O-])cc2c(=O)n1-c1nc2ccccc2s1 | > 100 µM (inactive) | > 100 µM (inactive) | > 100 µM (inactive) | > 100 µM (inactive) | > 100 µM (inactive) | > 100 µM (inactive) | > 100 µM (inactive) | > 100 µM (inactive) | > 100 µM (inactive) | > 100 µM (inactive) | > 100 µM (inactive) | > 100 µM (inactive) | > 100 µM (inactive) | > 100 µM (inactive) | > 100 µM (inactive) | > 100 µM (inactive) | > 100 µM (inactive) | > 100 µM (inactive) | > 100 µM (inactive)
CC(C)C(=O)/C=C/c1c(Cl)cccc1Cl | 3.05 µM (inactive) | 2.35 µM (inactive) | 2.33 µM (inactive) | 3.21 µM (inactive) | 3.47 µM (inactive) | 2.61 µM (inactive) | 4.74 µM (inactive) | 2.25 µM (inactive) | 2.98 µM (inactive) | 2.41 µM (inactive) | 21.2 µM (inactive) | 2.84 µM (inactive) | 4.28 µM (inactive) | 2.71 µM (inactive) | 2.18 µM (inactive) | 3.82 µM (inactive) | 2.25 µM (inactive) | 4.15 µM (inactive) | 3.04 µM (inactive)
O=[N+]([O-])/C(C(Cl)=C(Cl)Cl)=C(\Nc1cccc2ccccc12)Sc1ccccc1 | 16.5 µM (inactive) | 12.8 µM (inactive) | 16 µM (inactive) | 20.3 µM (inactive) | 15.5 µM (inactive) | 24.9 µM (inactive) | 13.9 µM (inactive) | 14.6 µM (inactive) | 8.53 µM (inactive) | 7.31 µM (inactive) | 11 µM (inactive) | 19.5 µM (inactive) | 11.3 µM (inactive) | 20.2 µM (inactive) | 19.8 µM (inactive) | 11.4 µM (inactive) | 19.2 µM (inactive) | 19.7 µM (inactive) | 15.2 µM (inactive)
Fc1ccc2c(c1)nc1n2C(c2c(F)cccc2F)SC1 (stereo not given) | 28.2 µM (inactive) | 47 µM (inactive) | 34 µM (inactive) | 98.6 µM (inactive) | 32.5 µM (inactive) | 49.8 µM (inactive) | > 100 µM (inactive) | > 100 µM (inactive) | 69.3 µM (inactive) | 28.6 µM (inactive) | 71.8 µM (inactive) | 31.6 µM (inactive) | 91.8 µM (inactive) | 70.8 µM (inactive) | 37 µM (inactive) | 57 µM (inactive) | 28.2 µM (inactive) | 48.5 µM (inactive) | 27.1 µM (inactive)
O=C1Cc2c([nH]c3ccc(Br)cc23)-c2cc(O)c(O)cc2N1 | > 100 µM (inactive) | > 100 µM (inactive) | > 100 µM (inactive) | > 100 µM (inactive) | > 100 µM (inactive) | > 100 µM (inactive) | > 100 µM (inactive) | > 100 µM (inactive) | > 100 µM (inactive) | > 100 µM (inactive) | > 100 µM (inactive) | – | > 100 µM (inactive) | > 100 µM (inactive) | > 100 µM (inactive) | > 100 µM (inactive) | > 100 µM (inactive) | > 100 µM (inactive) | > 100 µM (inactive)
CCOC(=O)Oc1cc2ccsc2c2c1c1ccccc1n2C(=O)OCC | 31 µM (inactive) | 36.4 µM (inactive) | 52.5 µM (inactive) | > 100 µM (inactive) | 58.2 µM (inactive) | 31.3 µM (inactive) | 28.3 µM (inactive) | 48.3 µM (inactive) | 94.8 µM (inactive) | 70.1 µM (inactive) | 18.4 µM (inactive) | 69.5 µM (inactive) | 35.6 µM (inactive) | 37.8 µM (inactive) | 30.9 µM (inactive) | 45 µM (inactive) | 27.1 µM (inactive) | 48.9 µM (inactive) | 38 µM (inactive)
COc1ccc2c(c1OC)C(=O)O[C@@H]2[C@H]1c2c(cc3c(c2OC)OCO3)CCN1C [NOSCAPINE] | 23.1 µM (inactive) | 21.1 µM (inactive) | 79.1 µM (inactive) | > 100 µM (inactive) | 63 µM (inactive) | 39.2 µM (inactive) | 62.5 µM (inactive) | 34.1 µM (inactive) | 27 µM (inactive) | 16.5 µM (inactive) | > 100 µM (inactive) | 40 µM (inactive) | 76.6 µM (inactive) | > 100 µM (inactive) | 39.9 µM (inactive) | 41 µM (inactive) | 4.86 µM (inactive) | 72.9 µM (inactive) | 43.8 µM (inactive)
CCN1C/C(=C\c2cc(OC)c(OC)c(OC)c2)C2=NN(c3ccccc3)C(c3cc(OC)c(OC)c(OC)c3)C2C1 (stereo not given) | 2.41 µM (inactive) | 0.34 µM (active) | 3.56 µM (inactive) | 2.84 µM (inactive) | 0.91 µM (active) | 1.7 µM (inactive) | 9.33 µM (inactive) | 6.84 µM (inactive) | 2.56 µM (inactive) | 3.63 µM (inactive) | 17.1 µM (inactive) | 2.07 µM (inactive) | 0.525 µM (active) | 2.47 µM (inactive) | 1.06 µM (active) | 0.652 µM (active) | 0.268 µM (active) | 1.5 µM (inactive) | 1.43 µM (inactive)
CN1CCN(c2ccncc2S(=O)(=O)N2CCN(C)CC2)CC1 | > 100 µM (inactive) | > 100 µM (inactive) | > 100 µM (inactive) | > 100 µM (inactive) | > 100 µM (inactive) | > 100 µM (inactive) | > 100 µM (inactive) | > 100 µM (inactive) | > 100 µM (inactive) | > 100 µM (inactive) | > 100 µM (inactive) | > 100 µM (inactive) | > 100 µM (inactive) | – | > 100 µM (inactive) | > 100 µM (inactive) | > 100 µM (inactive) | > 100 µM (inactive) | > 100 µM (inactive)
CCCCn1c2c(c3ccccc3c1=O)C(=O)c1ccccc1-2 | > 100 µM (inactive) | 33.7 µM (inactive) | 45.2 µM (inactive) | > 100 µM (inactive) | 25.9 µM (inactive) | > 100 µM (inactive) | – | > 100 µM (inactive) | > 100 µM (inactive) | > 100 µM (inactive) | > 100 µM (inactive) | 13.3 µM (inactive) | 94 µM (inactive) | > 100 µM (inactive) | – | 66.1 µM (inactive) | 37.2 µM (inactive) | 25 µM (inactive) | > 100 µM (inactive)
O=c1[nH]nc(-c2ccccc2)n1-n1cccc1 | > 100 µM (inactive) | > 100 µM (inactive) | – | > 100 µM (inactive) | > 100 µM (inactive) | > 100 µM (inactive) | > 100 µM (inactive) | > 100 µM (inactive) | > 100 µM (inactive) | > 100 µM (inactive) | > 100 µM (inactive) | > 100 µM (inactive) | > 100 µM (inactive) | > 100 µM (inactive) | > 100 µM (inactive) | > 100 µM (inactive) | > 100 µM (inactive) | > 100 µM (inactive) | > 100 µM (inactive)
